Publication PMC8700061, “Fragment-Sized and Bidentate (Immuno)Proteasome Inhibitors Derived from Cysteine and Threonine Targeting Warheads” (Cells, 2021)
Marks after values point to notes of the source that are not given here.

Columns and labels:
[1] = molecular target: T1, β1i subunit of human iCP (Homo sapiens, UniProt P28065+P40306); assay: Inhibition of β1i activity (RA, IC50), Ac-PAL-AMC; type: biochemical; conditions: PA28α; for IC50: 30 min pre-incubation
T1 construct: purchased Boston Biochem, Inc., Cambridge, MA, USA
Description: (§1) Residual activity measurements were performed at 10 μM final concentrations in the assay buffer (0.01% SDS, 50 mM Tris-HCl, 0.5 mM EDTA, pH 7.4). Stock solutions of the compounds were prepared in DMSO. To 50 μL of each compound in buffer, 25 μL of 0.8 nM human iCP or human cCP (both from Boston Biochem, Inc., Cambridge, MA, USA) were added. After incubation at 37 °C for 30 min, the reaction was started by adding of 25 μL of 100 μM relevant fluorogenic substrate: acetyl-Nle-Pro-Nle-Asp-AMC (Ac-nLPnLD-AMC, (Bachem, Bubendorf, Switzerland)) for β1, acetyl-Pro-Ala-Leu-7-amino-4-methylcoumarin (Ac-PAL-AMC, (Boston Biochem, Inc., Cambridge, MA, USA)) for β1i, t-butyloxycarbonyl-Leu-Arg-Arg-7-amino-4-methylcoumarin (Boc-LRR-AMC, (Bachem, Bubendorf, Switzerland)) for β2 and β2i, succinyl-Leu-Leu-Val-Tyr-7-amino-4-methylcoumarin (Suc-LLVY-AMC) (Bachem, Bubendorf, Switzerland) for β5 and β5i. Reaction progress was recorded on BioTek Synergy HT microplate reader by monitoring fluorescence at 460 nm (λex = 360 nm) for 90 min at 37 °C. The initial linear ranges were used to calculate velocity and determine residual activity. In the case of evaluation of β1, βi, β2, and β2i activities, the assay buffer was modified by replacing SDS with the proteasomal activator PA28α (Boston Biochem, Inc., Cambridge, MA, USA).
(§2) Final assay mixtures contained 0.2 nM human iCP or 0.2 nM human cCP in assay buffer (0.01% SDS (or PA28α in cases of β1, β1i subunits), 50 mM Tris-HCl, 0.5 mM EDTA, pH 7.4). Inhibitors were dissolved in DMSO and added to the black 96-well plates for at least eight different concentrations (the final concentration of DMSO was not more than 1%). After 30 min of incubation at 37 °C, the reaction was started by adding the substrate Suc-LLVY-AMC (for β5 and β5i) or Ac-nLPnLD-AMC (for β1) or Ac-PAL-AMC (for β1i). Fluorescence was monitored at 460 nm (λex = 360 nm) for 90 min at 37 °C. The progress of the reactions was recorded and the initial linear ranges were used to calculate the velocity. IC50 values were calculated using GraphPadPrism (GraphPad Software, San Diego, CA, USA) and are means from at least three independent determinations.

[2] = molecular target: T2, β1 subunit of human cCP (Homo sapiens, UniProt P28072+Q99436); assay: Inhibition of β1 activity (RA, IC50), Ac-nLPnLD-AMC; type: biochemical; conditions: PA28α; for β1 (RA [%]): 10 µM, Table 3
T2 construct: purchased Boston Biochem, Inc., Cambridge, MA, USA
Description: as §1, §2

[3] = molecular target: T3, β2i subunit of human iCP (Homo sapiens, UniProt P40306+P49720); assay: Residual β2i activity, Boc-LRR-AMC; type: biochemical; conditions: 10 µM, PA28α
T3 construct: purchased Boston Biochem, Inc., Cambridge, MA, USA
Description: as §1

[4] = molecular target: T4, β2 subunit of human cCP (Homo sapiens, UniProt P49720+Q99436); assay: Residual β2 activity, Boc-LRR-AMC; type: biochemical; conditions: 10 µM, PA28α
T4 construct: purchased Boston Biochem, Inc., Cambridge, MA, USA
Description: as §1

[5] = molecular target: T5, β5i subunit of human iCP (Homo sapiens, UniProt P20618+P28062); assay: Inhibition of β5i activity (RA at 10 µM, IC50, IC50 shift), Suc-LLVY-AMC; type: biochemical; conditions: for IC50: read-out: IC50 (µM), β5i
T5 construct: purchased Boston Biochem, Inc., Cambridge, MA, USA
Description: as §1
as §2, with “After 30 min of incubation at 37 °C, the reaction was started by adding the substrate Suc-LLVY-AMC (for β5 and β5i) or Ac-nLPnLD-AMC (for β1) or Ac-PAL-AMC (for β1i).” left out

[6] = molecular target: T6, β5 subunit of human cCP (Homo sapiens, UniProt P20618+P28074); assay: Inhibition of β5 activity (RA, IC50), Suc-LLVY-AMC; type: biochemical; conditions: 30 min pre-incubation, SDS
T6 construct: purchased Boston Biochem, Inc., Cambridge, MA, USA
Description: as §1, §2

[7] = UV-Vis-based stability assay in buffer; type: physicochemical; conditions: after 1 h, assay buffer pH 7.4, 37 °C, 50 µM
Description: The aqueous stability of all compounds was determined spectrophotometrically by following the changes in the absorption spectra of the compounds. The buffer solution (50 mM Tris-HCl, 0.5 mM EDTA, pH 7.4) was pre-incubated at 37 °C. Aliquots of the compounds studied (1 mM in DMSO) were transferred to a 96-well flat-bottom UV-transparent microplate (Corning, CLS3635, Corning Inc, Corning, NY, USA) containing the buffer solution to obtain a 50 μM solution containing 5% DMSO (final volume, 300 μL). The plate was incubated without lid at 37 °C in a plate reader (Synergy H4, BioTek Instruments, Inc., Santa Clara, CA, USA) and the absorbance spectrum (244–400 nm) was acquired in sweep mode after 0, 15, 30, 60, 120, 180, and 240 min using a discontinuous kinetic procedure in Gen5 software (BioTek Instruments, Inc., Santa Clara, CA, USA). The time required to read the entire plate was 3 min. To determine the baseline, the compound solution was replaced with pure DMSO and subtracted from each reading. Compounds with an absorbance maximum of less than 0.20 AU were not evaluated using these assays due to the high experimental error. For other compounds, the relative absorbance difference between the first time point and 60 min at the most responsive wavelength was calculated. If the relative absorbance difference for the compound in the buffer was below 0.1, between 0.1–0.2, and above 0.2, the compound was classified as stable, intermediate, and unstable, respectively.

[8] = HPLC-based stability assay in PBS; type: physicochemical; conditions: PBS pH 7.4
Description: GSH reactivity assay was performed as described by Petri et al.; 500 μM solution of compound (PBS buffer pH 7.4, 10% MeCN, 250 μL) with 200 μM solution of indoprofen as internal standard were added to 10 mM GSH solution (dissolved in PBS buffer, 250 μL) in a 1:1 ratio. The final concentration was 250 μM compound, 100 μM indoprofen, 5 mM GSH and 5% MeCN (500 μL). The final mixture was analyzed by HPLC after 0, 1, 2, 4, 8, 12, 24, 48, and 72 h. The degradation kinetics were also studied using the method described in [24], except that pure PBS buffer was used instead of GSH solution. In this experiment, the final concentration of the mixture was 250 μM fragment, 100 μM indoprofen and 5% MeCN. The area under the curve (AUC) values were determined by integrating the HPLC spectra and then corrected with the internal standard.

[9] = 30 min pre-incubation, SDS activator

## CC(C)C[C@H](NC(=O)[C@H](Cc1ccccc1)NC(=O)c1cnccn1)B(O)O [Bortezomib, reference compound]
[1]; 10 µM, Table 3, read-out: β1i residual activity at 10 µM
  remaining activity at 10 µM: 0%
[2]
  β1 (RA [%]): 0%
[3]; Table 3
  β2i (RA [%]): 16 ± 5%
[4]; Table 3
  β2 (RA [%]): 62 ± 9%

## COc1ccc2nc(C#N)oc2c1 [Compound 8]
[5]; [9]
  IC50: 11 ± 6 µM
[5]; ΔpIC50/ΔNheavy with compound 1 as reference
  Group efficiency (GE): 0.44
[6]
  β5 (RA [%]) at 10 µM: 74% ^b
[1]
  IC50: 69 µM
[2]
  β1 (RA [%]): NA (NA, Not active (RA above 90%))
[3]; Table 3
  β2i (RA [%]): NA (NA, Not active (RA above 90%))
[4]; Table 3
  β2 (RA [%]): NA (NA, Not active (RA above 90%))
[7]
  Stability in Buffer (UV-Vis-based assay): intermediate (between 0.1–0.2)
[8]
  Stability in Buffer (HPLC-based assay): stable

## N#Cc1nc2ccc(O)cc2o1 [Compound 12]
[7]
  Stability in Buffer (UV-Vis-based assay): intermediate ^c (between 0.1–0.2)

## N#Cc1nc2c([N+](=O)[O-])cccc2o1 [Compound 16]
[7]
  Stability in Buffer (UV-Vis-based assay): intermediate (between 0.1–0.2)
[8]
  Stability in Buffer (HPLC-based assay): unstable

## N#Cc1nc2ccc([N+](=O)[O-])cc2o1 [Compound 18]
[7]
  Stability in Buffer (UV-Vis-based assay): unstable ^c (above 0.2)

## N#Cc1nc2cccc([N+](=O)[O-])c2o1 [Compound 19]
[5]; 10 µM compound, 30 min pre-incubation, SDS activator
  RA (%) at 10 µM, β5i: 82 ± 2%
[7]
  Stability in Buffer (UV-Vis-based assay): stable ^c (relative absorbance difference for the compound in the buffer was below 0.1)

## N#Cc1nc2c(N)cccc2o1 [Compound 20]
[7]
  Stability in Buffer (UV-Vis-based assay): stable ^c (relative absorbance difference for the compound in the buffer was below 0.1)

## N#Cc1nc2cc(N)ccc2o1 [Compound 21]
[7]
  Stability in Buffer (UV-Vis-based assay): stable ^c (relative absorbance difference for the compound in the buffer was below 0.1)

## N#Cc1nc2cccc(N)c2o1 [Compound 23]
[7]
  Stability in Buffer (UV-Vis-based assay): stable ^c (relative absorbance difference for the compound in the buffer was below 0.1)

## N#Cc1nc2c(NC(=O)c3ccccc3)cccc2o1 [Compound 24]
[7]
  Stability in Buffer (UV-Vis-based assay): stable ^c (relative absorbance difference for the compound in the buffer was below 0.1)

## N#Cc1nc2cc(NC(=O)c3ccccc3)ccc2o1 [Compound 25]
[7]
  Stability in Buffer (UV-Vis-based assay): stable ^c,d (relative absorbance difference for the compound in the buffer was below 0.1)
[8]
  Stability in Buffer (HPLC-based assay): stable ^c,d

## N#Cc1nc2ccc(NC(=O)c3ccccc3)cc2o1 [Compound 26]
[7]
  Stability in Buffer (UV-Vis-based assay): unstable (above 0.2)
[8]
  Stability in Buffer (HPLC-based assay): stable

## N#Cc1nc2cccc(NC(=O)c3ccccc3)c2o1 [Compound 27]
[7]
  Stability in Buffer (UV-Vis-based assay): stable ^c (relative absorbance difference for the compound in the buffer was below 0.1)

## CC(C)C[C@H](NC(=O)Cn1c(C#N)nc2ccccc21)B1O[C@@H]2C[C@@H]3C[C@@H](C3(C)C)[C@]2(C)O1 [Compound 29]
[7]
  Stability in Buffer (UV-Vis-based assay): unstable ^b,c (above 0.2)
[8]
  Stability in Buffer (HPLC-based assay): unstable ^b,c

## CC(C)C[C@H](NC(=O)CCCCn1c(C#N)nc2ccccc21)B1O[C@@H]2C[C@@H]3C[C@@H](C3(C)C)[C@]2(C)O1 [Compound 32]
[5]; [9]
  IC50: 13 ± 2 µM
[6]
  IC50: 1.6 ± 0.8 µM
[7]
  Stability in Buffer (UV-Vis-based assay): intermediate (between 0.1–0.2)
[8]
  Stability in Buffer (HPLC-based assay): stable

## CC(C)C[C@H](NC(=O)Cn1c(C#N)nc2ccccc21)B(O)O [Compound 33]
[7]
  Stability in Buffer (UV-Vis-based assay): unstable ^b,c (above 0.2)
[8]
  Stability in Buffer (HPLC-based assay): unstable ^b,c

## CC(C)C[C@H](NC(=O)CCCCn1c(C#N)nc2ccccc21)B(O)O [Compound 36]
[5]; [9]
  IC50: 59 ± 7 µM
[6]
  IC50: 6.4 ± 2.6 µM
[1]
  IC50: 4.9 ± 0.4 µM
[2]; 30 min pre-incubation
  IC50: 23 ± 6 µM
[3]; Table 6
  β2i (RA [%]): NA (NA, Not active (RA above 95%))
[4]; Table 6
  β2 (RA [%]): NA (NA, Not active (RA above 95%))
[7]
  Stability in Buffer (UV-Vis-based assay): stable ^b (relative absorbance difference for the compound in the buffer was below 0.1)

## CC(C)C[C@H](NC(=O)CCn1c(C#N)nc2ccc(Cl)cc21)B1O[C@@H]2C[C@@H]3C[C@@H](C3(C)C)[C@]2(C)O1 [Compound 37]
[5]; [9]
  IC50: 1.6 ± 1.3 µM
[6]
  β5 (RA [%]) at 10 µM: 14 ± 1% ^e
[7]
  Stability in Buffer (UV-Vis-based assay): intermediate (between 0.1–0.2)
[8]
  Stability in Buffer (HPLC-based assay): stable
